# Experimental data as given in patent US20230232863A1, “FEED COMPOSITION FOR TENEBRIO MOLITOR” (priority 2022, published 2023).
# Experiments:
# Tenebrio molitor [1] = assay: Mealworm larvae feeding: survival rate; format: in vivo; conditions: alloferon peptide of 1 ppm
# Procedure: The feeding gelatin was made with combining 200 g of distilled water and 4 g of paper gelatin (Gelita H G, Eberbach, Germany), and solidified in the refrigerator using an ice cubic stick tray with the lid closed. The same process was performed for the experimental group of gelatin containing alloferon peptide (Biomatik, Del., USA) of 1 ppm. The tray had 10 slots to make each gelatin of approximately 20 g gelatin cubic and kept in the refrigerator with the lids closed to minimize loss of moisture.
# Yellow mealworms (Tenebrio molitor) were provided by a private local insect breeder (Mealworm village, Seoul, Korea). Mealworms larvae were divided into three different dietary groups: (1) About 500 larvae were placed in a plastic container (18.5×12×5.5 cm) with 30 g wheat bran only (control group), (2) About 500 larvae with wheat bran supplemented with 20 g gelatin three times per week (positive control group), (3) About 500 larvae with wheat bran supplemented with 20 g gelatin containing alloferon peptide of 1 ppm three times per week (experimental group). […]
# Mealworms pupae and dead larvae were counted and removed daily from each experimental group, and the numbers were recorded for the evaluation of survival rate. The average weight of the mealworm larvae was recorded every week with 20 randomly selected mealworms.
# Sf9 insect cells = assay: In vitro cell proliferation analysis by PrestoBlue assay; format: cell-based; conditions: 300 nM alloferon; measured at 0, 2, 4 and 6 days
# Procedure: The proliferation of Sf9 insect cells was analyzed by the PrestoBlue assay (Invitrogen, CA, USA). 8,000 cells/well were prepared in 96 well plates (Sigma-Aldrich, MI, USA). After cells were seeded, the cells were incubated with PBS with alloferon (300 nM). The control group received PBS without aloferon. At 0, 2, 4, and 6 days after applying 10% PrestoBlue, the color switchover of resazurin to resorufin (Absorbance 570 nm/600 nm) was measured with the microplate reader (BioTeck, Vt., USA).
# Tenebrio molitor [2] = assay: Mealworm larvae feeding: development time (larvae-pupae transformation); format: in vivo; conditions: days until 50% of larvae changed into pupae; laboratory scale; alloferon 1 ppm
# Procedure: The feeding gelatin was made with combining 200 g of distilled water and 4 g of paper gelatin (Gelita H G, Eberbach, Germany), and solidified in the refrigerator using an ice cubic stick tray with the lid closed. The same process was performed for the experimental group of gelatin containing alloferon peptide (Biomatik, Del., USA) of 1 ppm. The tray had 10 slots to make each gelatin of approximately 20 g gelatin cubic and kept in the refrigerator with the lids closed to minimize loss of moisture. Yellow mealworms (Tenebrio molitor) were provided by a private local insect breeder (Mealworm village, Seoul, Korea). Mealworms larvae were divided into three different dietary groups: (1) About 500 larvae were placed in a plastic container (18.5×12×5.5 cm) with 30 g wheat bran only (control group), (2) About 500 larvae with wheat bran supplemented with 20 g gelatin three times per week (positive control group), (3) About 500 larvae with wheat bran supplemented with 20 g gelatin containing alloferon peptide of 1 ppm three times per week (experimental group). Two replicated containers per each dietary group were set up, after which the containers were placed in a climate chamber at 25° C. with a relative humidity of 60%. Development time of mealworms was considered to be the number of days until 50% of mealworms larvae changed into pupae stage.
# Phenoloxidase = Phenoloxidase activity analysis in homogenized larvae tissue; format: in vivo, Tenebrio molitor; conditions: after alloferon diet
# Procedure: For various analysis of biologic response, harvested mealworms larvae were killed by freezing and then all mealworms stored at −20° C. Penoloxidase activity in homogenized larvae tissue was analyzed with a 96 well microplate reader using catechol as the substrate. After the sample was incubated for 37° C. for 10 min, the 420 nm absorbance was measured with a microplate spectrophotometer (Bio-Rad, CA, USA). The essay was performed with three replicates and each experiment was repeated three times. The penoloxidase activity was expressed as units of enzyme activity per mg protein.
substance,measurement,setting,value
"H-His-Gly-Val-Ser-Gly-His-Gly-Gln-His-Gly-Val-His-Gly-OH (H-HGVSGHGQHGVHG-OH) [alloferon, immunomodulatory peptide (Biomatik) first isolated from hemolymph of Calliphora vicina maggots]",increase of survival rate,Tenebrio molitor [1],over 61.8%
same,cell proliferation of Sf9 cells,Sf9 insect cells,significantly boosted cell proliferation of Sf9 cells only after 6 days
same,development time shortened compared to wheat bran diet control,Tenebrio molitor [2],40.3%
same,phenoloxidase expression/activity in mealworm tissue,Phenoloxidase,increasing the expression of penoloxidase
